The text below walks through data of article PMC11423305, “Structure-Based Design of CBP/EP300 Degraders: When Cooperativity Overcomes Affinity” (JACS Au, 2024).

The assay addresses T1, CBP-BRD:CRBN thalidomide binding domain ternary complex (Homo sapiens, UniProt Q92793+Q96SW2).
T1 construct: GST-CBP (human, residues 1081-1197); the C-terminus of CRBN (human, residues 318-442); His6 with TEV cleavage site (N, cleaved yes); made in house; host or cells: Rosetta (DE3) cells (E. coli)
Nature of the assay: TR-FRET CBP-BRD:PROTAC:CRBN ternary complex formation. The protocol: (PMSF), and 1 mM EDTA) and lysed by sonication. The lysates were clarified by centrifugation (18,000 rpm, 4 °C, 1 h).
For GST-CBP the soluble proteins were loaded onto a column packed with glutathione sepharose 4B (GE Healthcare) and subsequently eluted with 10 mM reduced glutathione in buffer containing 20 mM Tris-HCl pH 8.0, and 150 mM NaCl. Finally, a size exclusion step (HiLoad 16/600 Superdex 200 pg column from GE Healthcare) was used to further purify the protein in buffer containing 50 mM HEPES pH 7.5 and 150 mM NaCl. For His-CRBN and His-CRBN-Avi(biotin), the soluble fractions were loaded onto the HisTrap FF crude column (GE Healthcare) and washed with lysis buffer supplemented with 50 mM imidazole. The proteins were eluted with a buffer containing 250 mM imidazole, 100 mM Tris-HCl pH 8.0 and 500 mM NaCl. For His-CRBN-Avi(biotin) only, recombinant TEV protease was used to cleave the His6-tag during overnight dialysis at 4 °C against buffer containing 100 mM Tris-HCl pH 8.0 and 500 mM NaCl. The dialyzed sample was passed through the HisTrap FF crude column to remove His6-tagged TEV protease and uncleaved protein. […]
The maximal control contained no PROTAC, the blank contained no SK-20 and no PROTAC – these were replaced by the appropriate buffer. […] The samples were incubated for 3 h (20 °C, dark) and the signal was detected using the Infinite M1000 plate reader (Tecan). After excitation at 317 nm, emission at 620 and 665 nm was recorded. […]
were determined according to the following equation:
activity (%) = ΔF ∗ 100 = F−Fb ∗ 100 , where Ft is the TR-FRET signal in the absence of any compound (maximal control, 100 % activity), Fb the TR-FRET signal in the absence of the GST -CBP (blank, 0 % activity) and F the TR -FRET signal in the presence of the compound. Dose -response curves were plotted in GraphPad Prism 10.2.3 and fitted with nonlinear regression “log(inhibitor) vs. normalized response – variable slope”, from which IC 50 values were determined. […]
A general note: In TR-FRET formats the signal depends on donor and acceptor labels being close together.

T1 sequence (Q92793 1081-1197): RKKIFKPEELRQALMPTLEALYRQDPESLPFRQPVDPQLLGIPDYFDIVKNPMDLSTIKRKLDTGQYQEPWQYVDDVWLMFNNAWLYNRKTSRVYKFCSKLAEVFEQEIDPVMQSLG
T1 sequence (Q96SW2 318-442): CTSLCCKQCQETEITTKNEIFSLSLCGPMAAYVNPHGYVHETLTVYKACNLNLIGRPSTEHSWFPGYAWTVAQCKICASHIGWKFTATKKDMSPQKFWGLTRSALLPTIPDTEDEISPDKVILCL

On to `Cc1cc2c(NC(=O)c3cc(NC(=O)CCCCCCCCCCNc4cccc5c4C(=O)N(C4CCC(=O)NC4=O)C5=O)cc(-c4ccn(C)n4)c3)cccc2nn1` (centres unmarked) [dCE-2], for which, for the setting “CBP-BRD and CRBN-thalidomide binding domain labeled with TR-FRET pair”, the “ternary complex formation (TR-FRET)” value was “robust formation of the ternary complex”. For the setting “TR-FRET ternary complex”, the “PROTAC concentration at peak of hook curve” value is on record as “around 1 μM”.
